The source of these data is paper PMC5017016, “Calcium/calmodulin alleviates substrate inhibition in a strawberry UDP-glucosyltransferase involved in fruit anthocyanin biosynthesis” (BMC Plant Biology, 2016).

This assay deals with T1, FvUGT1 (Fragaria vesca, UniProt A0A1S5NSV4).
T1 construct: gene UGT1; full-length ORF in pET-32 (KpnI/BamHI), N- and C-terminal His-tags kept, fusion 72 kD, E. coli BL21(DE3) pLysS, Ni-NTA; oligomer state unknown
T1 sequence (A0A1S5NSV4 1-465): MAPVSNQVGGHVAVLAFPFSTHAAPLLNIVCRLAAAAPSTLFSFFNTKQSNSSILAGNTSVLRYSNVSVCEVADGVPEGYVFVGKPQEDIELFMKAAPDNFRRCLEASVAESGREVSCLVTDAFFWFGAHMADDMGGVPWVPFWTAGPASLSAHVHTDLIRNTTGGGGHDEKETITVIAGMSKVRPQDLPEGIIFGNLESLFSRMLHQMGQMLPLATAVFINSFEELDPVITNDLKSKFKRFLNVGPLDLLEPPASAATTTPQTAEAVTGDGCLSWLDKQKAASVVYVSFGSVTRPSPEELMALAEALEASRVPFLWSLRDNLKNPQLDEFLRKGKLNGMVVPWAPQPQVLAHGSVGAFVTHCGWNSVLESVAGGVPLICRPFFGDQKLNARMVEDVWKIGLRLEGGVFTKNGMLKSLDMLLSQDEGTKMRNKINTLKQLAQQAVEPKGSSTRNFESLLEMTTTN
Briefly: phosphatase-coupled malachite green glycosyltransferase assay; partial uncompetitive substrate inhibition fit (modified Hill, x = […]). The assay is classed as biochemical. Particulars: second site, no calmodulin, 5 mM UDP-Glc, 0–1,400 μM pelargonidin chloride, 10 mM CaCl2, pH 7.5, 37 °C.

On to `Oc1ccc(-c2[o+]c3cc(O)cc(O)c3cc2O)cc1` [pelargonidin], for which the “K i” value was 331.5 ± 13.3 µM.
